From publication PMC8184781, “A histone H3K4me1-specific binding protein is required for siRNA accumulation and DNA methylation at a subset of loci targeted by RNA-directed DNA methylation” (Nature Communications, 2021)

Legend:
RDM15 Tudor domain [1] = molecular target: T1, RDM15 Tudor domain (Arabidopsis thaliana, UniProt Q8GUP3); experiment: Isothermal titration calorimetry (ITC), RDM15 Tudor domain (WT); assay type: binding; conditions: compared with H3K4me0, H3K4me2 and H3K4me3
T1 construct: hexahistidine-yeast Sumo (cleaved yes); made in house; host or cells: E. coli BL21(DE3)
T1 sequence (Q8GUP3 599-663): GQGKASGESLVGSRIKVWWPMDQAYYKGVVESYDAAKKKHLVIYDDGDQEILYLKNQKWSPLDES
Procedure: ITC binding was measured using a Microcal PEAQ-ITC instrument (Malvern). The purified proteins were dialyzed against a buffer containing 100 mM NaCl, 20 mM HEPES, pH 7.0, and 2 mM β-mercaptoethanol and were diluted to a concentration of about 0.8–0.12 mM. The peptide was dissolved in the same buffer with a concentration of about 1.0–1.5 mM. All of the titrations were performed at 20 °C. The data were analyzed using the Origin 7.0 program.

RDM15 Tudor domain [2] = molecular target: T1, RDM15 Tudor domain; experiment: Histone peptide array (MODified Histone Peptide Array), GST-fused RDM15; assay type: binding; conditions: several hundred combinations of histone marks
Procedure: Histone peptide array assay was performed using the MODified Histone Peptide Array kit (Active Motif) according to the manufacturer’s instructions. In brief, the slide was first blocked for 2 h at room temperature. After it was washed three times with TBST buffer [10 mM Tris·HCl (pH 7.5), 30 mM NaCl, and 0.05% Tween-20], the slide was incubated overnight with […] of GST-fused purified RDM15 protein at 4 °C in […] of binding buffer [50 mM Hepes (pH 8.0), 150 mM NaCl, 2 mM DTT, and 0.05% Nonidet P-40]. After it was washed three additional times with TBST buffer, the slide was incubated with anti-GST primary antibody at 1/3000 dilution and secondary antibody at 1/5000 dilution in TBST buffer for 1 h at room temperature, respectively. After the washing, the slide was visualized using Lumi-light ECL substrate (Roche). The intensity of the blotted slide was analyzed according to the instructions of the analysis software of the MODified Histone Peptide Array.

RDM15 = experiment: Co-immunoprecipitation of H3K4me1 with wild-type RDM15, western blot; assay type: binding, Arabidopsis; conditions: wild-type RDM15 (RDM15-3xFLAG/rdm15-3 plants), anti-FLAG IP
Text: (§1) H3K4me1 mark. a. Histone peptide array assay showing the binding preference of RDM15 to H3K4me1. Error bar represents s.d. (n=3 independent experiments). Data are presented as mean values +/- SD and the dots are the corresponding data points. b. ITC binding curves between the RDM15 tudor domain and H3K4me1 and H4K20me1 peptides indicate that H3K4me1 is the optimal binding partner for […]
(§2) The RDM15-3xFLAG/rdm15-3 and mutated
(§3) RDM15-3xMYC/rdm15-3 plants were used to perform protein immunoprecipitation with anti-FLAG and anti-MYC antibodies, respectively, and then anti-H3K4me1 antibody was used to detect H3K4me1 . d. Methylation specific PCR results showing the methylation levels at several RDM15 -dependent RdDM loci. McrBC, an enzyme cleaving methylated DNA, was used to digest genomic DNA from different pla nts with two biological replicates. Stronger PCR signal represent s lower methylation level. RDM15-3xFLAG rescued the hypomethylation phenotype in rdm15-3, however, the Mutated RDM15-3xMYC didn’t rescue the methylation phenotype .
We thank the reviewer for their comments. We will response the comments in the following with our response highlighted in red.
The authors have fully addressed my concerns.I think this paper meets the standard of a Nature […]
(§4) Moreover, the H3K4me1 mark has been previously detected by ChIP-seq at whole-genome level in a previous study (Inagaki et al., EMBO J., 2017). […]

[3] = tested on: mutated RDM15 (W616A/Y623A/D643A/D645A); experiment: Co-immunoprecipitation of H3K4me1 with mutated RDM15, western blot; assay type: binding, Arabidopsis; conditions: mutated RDM15-3xMYC/rdm15-3 plants, anti-MYC IP
Text: We expressed the mutated RDM15 (W616A/Y623A/D643A/D645A) incapable of binding to H3K4me1 in rdm15-3 mutant plants, generating mutated RDM15-3xMYC/rdm15-3 plants.
as §1, §2, §3
We thank the reviewer for their comments. […]
as §4

Structure (SMILES): CNCCCC[C@H](NC(=O)[C@@H](NC(=O)[C@H](CCCNC(=N)N)NC(=O)[C@H](C)N)[C@@H](C)O)C(=O)N[C@@H](CCC(N)=O)C(=O)N[C@H](C(=O)N[C@@H](C)C(=O)N[C@@H](CCCNC(=N)N)C(=O)N[C@@H](CCCCN)C(=O)N[C@@H](CO)C(=O)N[C@H](C(=O)NCC(=O)NCC(=O)N[C@@H](CCCCN)C(=O)N[C@@H](C)C(=O)O)[C@@H](C)O)[C@@H](C)O [H3K4me1]
- Binding in words (ITC) (RDM15 Tudor domain [1]): bound much more strongly to the monomethylation state of H3K4
- Binding in words (histone peptide array) (RDM15 Tudor domain [2]): significant binding
- Co-immunoprecipitation of H3K4me1 (RDM15): co-immunoprecipitated by wild-type RDM15
- Co-immunoprecipitation of H3K4me1 [3]: not by mutated RDM15
